Reference: US20050244335A1, “Methods and compositions related to increasing antitumor activity of chemotherapeutic agents” (priority 2004, published 2005)

Columns and labels:
[1] = Pharmacokinetics of carboplatin in nude mice bearing LS174T xenografts; type: in vivo; details: for AUC / CL / Cmax / T1/2 / Vss: nude mice bearing LS174T xenografts, carboplatin 60 mg/kg iv
Method: Pharmacokinetics and Tissue Distribution of Carboplatin. Pharmacokinetic studies were carried out using a protocol similar to that previously described (26) using metabolism cages. Female nude mice bearing human colon cancer LS174T xenografts or human lung cancer A549 xenografts were used (3 animals for each time point). Animals were pre-treated with DEX (s.c., 0.1 mg/day/mouse for 5 days) or saline (as controls) and, at 1 hr after the fifth dose of DEX, were given a single intravenously (i.v.) bolus administration of carboplatin (60 mg/kg) via a tail vein. At various times (5, 15, and 30 min, 1, 2, 4, 8, and 24 hr after carboplatin dosing), blood samples were collected in heparinized tubes and tissue samples removed. Plasma was separated by centrifugation at 20,000 g for 5 min. Tissues including liver, kidneys, spleen, and tumor were taken at various times and immediately blotted on Whatman No. 1 filter paper, trimmed of extraneous fat or connective tissue, weighed, and homogenized in 0.9% NaCl physiological saline (5 mL per gram of wet weight). The resultant homogenates were stored at −70° C. until further analysis. Bone marrow cells were harvested by flushing the femurs with sterile physiological saline as reported previously (30). Briefly, after removing the distal and proximal ends of femur, each end of the bone was punctured with a 20-gauge needle fitted with a 5 mL syringe containing 1 mL of sterile physiological saline (pre-weighed). The bone was then held with a forceps over a test tube and the needle was inserted into the hole in the proximal end. The 1 mL saline was flushed through the bone into the tube by applying gentle, steady pressure to the plunger. The syringe was then filled with 5 ml of air that was gently forced through the bone to remove the remaining saline and bone marrow in the shaft. The resultant bone marrow cell suspension was weighed and lysed by sonicating 5 times for periods of 10 sec. Following centrifugation at 20,000 g for 30 min, the supernatant was removed and stored at −70° C. until further analysis.
HPLC Analysis of Carboplatin in Plasma and Tissues. Carboplatin in biological samples was analyzed by an analytical procedure involving micro-filtration and reversed-phase HPLC (31). 200 μL of plasma or tissue homogenates or bone marrow suspension was added to the reservoir of a Centrifree™ micropartition system. The latter was capped and centrifuged at 2,000 g for 5 min. All filtrates were transferred into a new micro centrifuge tube and 6 μL of the filtrates was injected onto the HPLC column. The HPLC system consisted of a Hewlett Packard 1050 ChemStation with a UV detector (Agilent 1050 series). Determination of Carboplatin was achieved using a LiChrosorb™ diol (10 μm, 250×4.6 mm) analytical column with a LiChroCART 100 RP-18 guard column. The mobile phase for plasma was composed of 98:2 acetonitrile:H2O (vol/vol) and 89:11 acetonitrile: 0.015% H3PO4 (vol/vol) for urine and tissue samples. The flow rates were 2 mL/min (for plasma) and 1.1 mL/min (for urine and tissue samples). The column elute was monitored by UV at 229 nm. Quantitation of plasma or tissue carboplatin was carried out by using an external standard curve (0-4,000.0 μg/mL) that was freshly prepared on a daily basis. Linear regression and correlation analysis were carried out to establish the standard peak-area/concentration curves for carboplatin.
Data and Statistical Analysis.

[2] = tested on: human cancer xenografts; assay: Six murine-human cancer xenograft models overall: efficacy and toxicity; details: nude mice; carboplatin 120 mg/kg, gemcitabine 160 mg/kg i.p.
Method: Human cancer xenograft models were established using the methods reported previously (26-29). When confluence reached 80%, cultured LS174T, MCF-7, MDA-MB-468, U87-MG, A549 and H1299 cells were harvested from the monolayer cultures, washed with the above indicated serum-free medium and resuspended in the same medium with Matrigel® basement membrane matrix at a 3:1 ratio, and then injected subcutaneously (s.c.) (5×10^6 cells, total volume 0.2 mL) into the left inguinal area of the nude mice. The animals were monitored for activity, physical condition, determination of body weight, and measurement of tumor growth. Tumor growth was determined by caliper measurement in two perpendicular diameters of the implant every other day. Tumor weight (in g) was calculated by the formula, 1/2a×b^2 where “a” is the long diameter and “b” is the short diameter (in cm).
Nude mice bearing human cancer xenografts were randomly divided into various treatment and control groups (5 mice/group). In treatment groups, animals were pre-treated with DEX subcutaneously (s.c., 0.1 mg/day for 5 days, Day −4-0) or saline (as controls). Carboplatin was administered intraperitoneally (i.p.) at a single dose of 120 mg/kg (360 mg/m^2) on day 0.
The antitumor activity (tumor mass) and peripheral blood counts were expressed as mean and standard deviations and the significance of differences were analyzed by ANOVA.
When mean tumor mass reached 44-68 mg, animals were treated with s.c. DEX at a dose of 0.1 mg/day for 5 days, followed by chemotherapy.

[3] = LS174T nude mice, without DEX treatment

For `N.N.O=C([O-])C1(C(=O)[O-])CCC1.[Pt+2]` [carboplatin], the “decrease in tumor Clearance by DEX pretreatment” value ([1]; LS174T nude mice) was 160%, the “increase in tumor AUC by DEX pretreatment” value ([1]; LS174T nude mice) was 200% and the “increase in tumor Cmax by DEX pretreatment” value ([1]; LS174T nude mice) was 100%. For the same molecule, the “tumor AUC relative to bone marrow AUC” value [1, 3] was 3%, the “tumor AUC relative to liver AUC” value [1, 3] was 23% and the “tumor AUC relative to spleen AUC” value [1, 3] was 4%. The AUC ([1]; bone marrow, DEX (+)) was 269710 ng·h/mL, the CL ([1]; bone marrow, DEX (+)) was 0.22 mL/g/h and the Cmax ([1]; bone marrow, DEX (+)) was 22560 ng/mL. The T1/2 ([1]; bone marrow, DEX (+)) was 410 min, the Vss ([1]; bone marrow, DEX (+)) was 2.17 mL/g and the AUC ([1]; bone marrow, DEX (−)) was 411270 ng·h/mL. It also gave a CL ([1]; bone marrow, DEX (−)) of 0.15 mL/g/h, a Cmax ([1]; bone marrow, DEX (−)) of 23360 ng/mL and a T1/2 ([1]; bone marrow, DEX (−)) of 669.6 min. For the same molecule, the Vss ([1]; bone marrow, DEX (−)) was 2.42 mL/g, the AUC ([1]; liver, DEX (+)) was 42450 ng·h/mL and the CL ([1]; liver, DEX (+)) was 1.41 mL/g/h. It also gave a Cmax ([1]; liver, DEX (+)) of 19410 ng/mL, a T1/2 ([1]; liver, DEX (+)) of 33.6 min and a Vss ([1]; liver, DEX (+)) of 1.14 mL/g. The AUC ([1]; liver, DEX (−)) was 51520 ng·h/mL, the CL ([1]; liver, DEX (−)) was 1.16 mL/g/h and the Cmax ([1]; liver, DEX (−)) was 26970 ng/mL. For the same molecule, the T1/2 ([1]; liver, DEX (−)) was 29.4 min, the Vss ([1]; liver, DEX (−)) was 0.82 mL/g and the AUC ([1]; plasma, DEX (+)) was 43160 ng·h/mL. It also gave a CL ([1]; plasma, DEX (+)) of 1.39 mL/g/h, a Cmax ([1]; plasma, DEX (+)) of 280800 ng/mL and a T1/2 ([1]; plasma, DEX (+)) of 6.6 min. For the same molecule, the Vss ([1]; plasma, DEX (+)) was 0.21 mL/g, the AUC ([1]; plasma, DEX (−)) was 44510 ng·h/mL and the CL ([1]; plasma, DEX (−)) was 1.35 mL/g/h. The Cmax ([1]; plasma, DEX (−)) was 375270 ng/mL, the T1/2 ([1]; plasma, DEX (−)) was 4.8 min and the Vss ([1]; plasma, DEX (−)) was 0.16 mL/g. For the same molecule, the AUC ([1]; spleen, DEX (+)) was 480 ng·h/mL, the CL ([1]; spleen, DEX (+)) was 126.35 mL/g/h and the Cmax ([1]; spleen, DEX (+)) was 9440 ng/mL. For the same molecule, the T1/2 ([1]; spleen, DEX (+)) was 2.4 min, the Vss ([1]; spleen, DEX (+)) was 6.36 mL/g and the AUC ([1]; spleen, DEX (−)) was 353360 ng·h/mL. The CL ([1]; spleen, DEX (−)) was 0.17 mL/g/h, the Cmax ([1]; spleen, DEX (−)) was 24200 ng/mL and the T1/2 ([1]; spleen, DEX (−)) was 595 min. For the same molecule, the Vss ([1]; spleen, DEX (−)) was 2.43 mL/g, the AUC ([1]; tumor, DEX (+)) was 33540 ng·h/mL and the CL ([1]; tumor, DEX (+)) was 1.79 mL/g/h. It also gave a Cmax ([1]; tumor, DEX (+)) of 89800 ng/mL, a T1/2 ([1]; tumor, DEX (+)) of 15.6 min and a Vss ([1]; tumor, DEX (+)) of 0.67 mL/g. The AUC ([1]; tumor, DEX (−)) was 12790 ng·h/mL, the CL ([1]; tumor, DEX (−)) was 4.69 mL/g/h and the Cmax ([1]; tumor, DEX (−)) was 44160 ng/mL. The T1/2 ([1]; tumor, DEX (−)) was 12 min, the Vss ([1]; tumor, DEX (−)) was 1.36 mL/g and the death [2] was “no death occurred”. For the same molecule, the “tolerability by inspection and animal weights” value [2] was “tolerated well”.
